A short description of data set [1]: Guest molecule concentration after incubation in initial medium without polymer (Comparative Example 1). The data set is classed as physicochemical. Particulars: 37° C. On the procedure:
pH 2.0 hydrochloric acid, pH 4.5 acetate, and pH 6.5, pH 6.8, or pH 7.4 phosphate buffer solutions were prepared. The selection of each initial medium followed the principle that the solubility in the initial medium of the selected targets (or active ingredients) should low enough, but should meet the detection sensitivity and accuracy requirements of the corresponding analytical methods. Each buffer as initial media was placed in a 50 ml test tube with a stopper, shaken in a constant temperature air shaker at 37° C.±0.5° C., with an amplitude of 200 rpm, and incubated for 1 hour. […] Samples were taken at 0.5 h, 3 h and 6 h after incubation, centrifuged at 37° C., 13000 rpm for 5 minutes, and the supernatant was diluted at least 10 times with the mobile phase under the target analyte analytical method, filtered, the initial filtrate was discarded, and the continued filtrate was used as the test solution for injection analysis. The corresponding HPLC method under each target object item in Table 8 was used to determine the content of each target substance. When the solubility of the target in the initial medium is below the quantitative limit of the analytical method, a small amount of surfactant, such as sodium dodecyl sulfate (SDS), Tween20, or Tween80, can be added appropriately.
The above targets were incubated at 37° C.±0.5° C. for different time in an initial medium without any polymer. Each solid target formed by molecular stacking was removed by centrifugation, and the supernatant was analyzed using the HPLC method under each target item (see Table 8). The theoretical addition concentration of each target when its supramolecular self-assembly system was built was determined by its maximum dose in clinical use.

Data set [2] can be described thus: Binary supramolecular self-assembly systems of polymer and target: guest concentration over incubation time (Comparative Example 2). Format: physicochemical. On the procedure: Experiments were conducted according to the steps in Comparative Example 1, and quantitative analysis was carried out using the analytical method for each target to investigate the regulation ability […] stacking.

The conditions of data set [3]: cited from earlier work.
[4] abbreviates: binary system with 0.5% polymer 101, incubation 0.5 h.
Where [5] appears, read: binary system with 0.5% polymer 101, incubation 3 h.
[6] abbreviates: binary system with 0.5% polymer 101, incubation 6 h.
Where [7] appears, read: binary system with 0.5% polymer 102, incubation 0.5 h.
Where [8] appears, read: binary system with 0.5% polymer 102, incubation 3 h.
The mark [9] stands for this setting: binary system with 0.5% polymer 102, incubation 6 h.
Setting [10] is: binary system with 0.5% polymer 103, incubation 0.5 h.
Setting [11] is: binary system with 0.5% polymer 103, incubation 3 h.
Where [12] appears, read: binary system with 0.5% polymer 103, incubation 6 h.
Where [13] appears, read: binary system with 0.5% polymer 106, incubation 0.5 h.
Setting [14] is: binary system with 0.5% polymer 106, incubation 3 h.
Setting [15] is: binary system with 0.5% polymer 106, incubation 6 h.
[16] abbreviates: binary system with 0.5% polymer 107, incubation 0.5 h.
Where [17] appears, read: binary system with 0.5% polymer 107, incubation 3 h.
The mark [18] stands for this setting: binary system with 0.5% polymer 107, incubation 6 h.
Setting [19] is: binary system with 0.5% polymer 110, incubation 0.5 h.
Where [20] appears, read: binary system with 0.5% polymer 110, incubation 3 h.
Where [21] appears, read: binary system with 0.5% polymer 110, incubation 6 h.

In the case of `CCOc1nc2cccc(C(=O)OC(C)OC(=O)OC3CCCCC3)c2n1Cc1ccc(-c2ccccc2-c2nnn[nH]2)cc1` (centres unmarked) [Candesartan Cilexetil, candesartan cilexetil], the “Concentration of guest molecule measured after different incubated time” value (from here on “Concentration … after different incubated time”) was 3800 ng/mL in data set [1] (0.5 h, pH 4.5 acetate buffer); 2100 ng/mL in data set [1] (3 h, pH 4.5 acetate buffer); 2000 ng/mL in data set [1] (6 h, pH 4.5 acetate buffer). Besides, the “Concentration of the target in the solution measured after different incubation time” value (“Concentration … after different incubation time” for short) came to 135300 ng/mL in data set [2] (setting [4]); 34500 ng/mL in data set [2] (setting [5]); 18400 ng/mL in data set [2] (setting [6]); 47000 ng/mL in data set [2] (setting [7]); 43800 ng/mL in data set [2] (setting [8]); 4900 ng/mL in data set [2] (setting [9]). Moreover, the “Concentration … after different incubation time” value was determined as 91600 ng/mL in data set [2] (setting [10]); 110500 ng/mL in data set [2] (setting [11]); 120700 ng/mL in data set [2] (setting [12]); 103100 ng/mL in data set [2] (setting [13]); 16200 ng/mL in data set [2] (setting [14]); 18800 ng/mL in data set [2] (setting [15]). For the same compound, the “Concentration … after different incubation time” value in data set [2] (setting [16]) came to 189100 ng/mL; in data set [2] (setting [17]), 33700 ng/mL; in data set [2] (setting [18]), 28800 ng/mL; in data set [2] (setting [19]), 4700 ng/mL; in data set [2] (setting [20]), 18300 ng/mL; in data set [2] (setting [21]), 3300 ng/mL. Moreover, the “LogD7.4 or Log P” value in data set [3] is recorded as 5.31.
As to `CCC(C)n1ncn(-c2ccc(N3CCN(c4ccc(OCC5COC(Cn6cncn6)(c6ccc(Cl)cc6Cl)O5)cc4)CC3)cc2)c1=O` (centres unmarked) [Itraconazole, itraconazole], the “Concentration … after different incubated time” value was 10700 ng/mL in data set [1] (0.5 h, 0.05% SDS in pH 6.8 phosphate buffer); 2900 ng/mL in data set [1] (3 h, 0.05% SDS in pH 6.8 phosphate buffer); 2700 ng/mL in data set [1] (6 h, 0.05% SDS in pH 6.8 phosphate buffer). Moreover, the “Concentration … after different incubation time” value in data set [2] (setting [4]) turned out to be 47900 ng/mL; in data set [2] (setting [5]), 4800 ng/mL; in data set [2] (setting [6]) it was 3000 ng/mL; in data set [2] (setting [7]), 69700 ng/mL; in data set [2] (setting [8]), 34500 ng/mL; in data set [2] (setting [9]), 24700 ng/mL. Further, the “Concentration … after different incubation time” value worked out at 14100 ng/mL in data set [2] (setting [10]); 8600 ng/mL in data set [2] (setting [11]); 1900 ng/mL in data set [2] (setting [12]); 31500 ng/mL in data set [2] (binary system with 0.5% polymer 104, incubation 0.5 h); 7100 ng/mL in data set [2] (binary system with 0.5% polymer 104, incubation 3 h); 3100 ng/mL in data set [2] (binary system with 0.5% polymer 104, incubation 6 h). Moreover, the “Concentration … after different incubation time” value turned out to be 43300 ng/mL in data set [2] (setting [13]); 8300 ng/mL in data set [2] (setting [14]); 6400 ng/mL in data set [2] (setting [15]); 13500 ng/mL in data set [2] (setting [16]); 1700 ng/mL in data set [2] (setting [17]); 1200 ng/mL in data set [2] (setting [18]). Besides, the “LogD7.4 or Log P” value in data set [3] is reported as 7.31.
Take `CC1(C)CCC(CN2CCN(c3ccc(C(=O)NS(=O)(=O)c4ccc(NCC5CCOCC5)c([N+](=O)[O-])c4)c(Oc4cnc5[nH]ccc5c4)c3)CC2)=C(c2ccc(Cl)cc2)C1` [Venetoclax, venetoclax]: the “Concentration … after different incubated time” value in data set [1] (0.5 h, pH 6.8 phosphate buffer) came out at 19800 ng/mL; in data set [1] (3 h, pH 6.8 phosphate buffer), 12400 ng/mL; in data set [1] (6 h, pH 6.8 phosphate buffer), 9600 ng/mL. Further, the “Concentration … after different incubation time” value amounted to 233600 ng/mL in data set [2] (setting [4]); 249500 ng/mL in data set [2] (setting [5]); 252600 ng/mL in data set [2] (setting [6]); 151600 ng/mL in data set [2] (setting [7]); 254900 ng/mL in data set [2] (setting [8]); 272100 ng/mL in data set [2] (setting [9]). Moreover, the “Concentration … after different incubation time” value in data set [2] (setting [10]) stood at 78600 ng/mL; in data set [2] (setting [11]), 72900 ng/mL; in data set [2] (setting [12]) it was 59500 ng/mL; in data set [2] (setting [13]), 232200 ng/mL; in data set [2] (setting [14]), 250500 ng/mL; in data set [2] (setting [15]) it was 156800 ng/mL. Further, the “Concentration … after different incubation time” value was found to be 152200 ng/mL in data set [2] (setting [16]); 153100 ng/mL in data set [2] (setting [17]); 156800 ng/mL in data set [2] (setting [18]); 385500 ng/mL in data set [2] (setting [19]); 534600 ng/mL in data set [2] (setting [20]); 566200 ng/mL in data set [2] (setting [21]). The “LogD7.4 or Log P” value in data set [3] is recorded as 6.88.
For `CC1=C(/C=C/C(C)=C/C=C/C(C)=C/CO)C(C)(C)CCC1` [Vitamin A, vitamin A], the “Concentration … after different incubated time” value was determined as 57200 ng/mL in data set [1] (0.5 h, pH 6.8 phosphate buffer); 51100 ng/mL in data set [1] (3 h, pH 6.8 phosphate buffer); 53000 ng/mL in data set [1] (6 h, pH 6.8 phosphate buffer). For the same compound, the “Concentration … after different incubation time” value in data set [2] (setting [7]) was 80500 ng/mL; in data set [2] (setting [8]), 80200 ng/mL; in data set [2] (setting [9]), 75700 ng/mL. The “LogD7.4 or Log P” value in data set [3] is on record as 4.69.
Consider `Cc1c(C)c2c(c(C)c1O)CC[C@@](C)(CCC[C@H](C)CCC[C@H](C)CCCC(C)C)O2` [Vitamin E, vitamin E], for which the “Concentration … after different incubated time” value in data set [1] (0.5 h, pH 6.8 phosphate buffer) came to 20900 ng/mL; in data set [1] (3 h, pH 6.8 phosphate buffer) it was 17900 ng/mL; in data set [1] (6 h, pH 6.8 phosphate buffer), 11900 ng/mL. Moreover, the figures for the “Concentration … after different incubation time” value in data set [2] (setting [7]), in data set [2] (setting [8]) and in data set [2] (setting [9]) were 28600 ng/mL, 57900 ng/mL and 36400 ng/mL, respectively. Also, the “LogD7.4 or Log P” value in data set [3] was 10.50.

Source of the values: patent publication US20250339399A1, “SUPRAMOLECULAR SELF-ASSEMBLY SYSTEM” (Beijing Creatron Institute of Pharmaceutical Research Co., …, priority 2022, published 2025).
